Tests used:
[1] = system: macrophage M1 associated gene expression; assay: Cisplatin treated transwell co-culture of macrophages and B16F10 cells, qRT-PCR; type: cell-based, mouse
Description: (§1) Peritoneal macrophage isolation and culture. Peritoneal macrophages were done as described previously(65) from 8-week-old C57BL/6J mice (randomized, both male and female). PBS (Gibco) was injected in the mural peritoneal cavity to release the macrophages. After recovering, cells were centrifuged at 1200 rpm for 5 minutes, resuspended in DMEM high glucose, 10% FBS, 1% penicillin-streptomycin (Gibco) and plated. 2 hours after the last step, cells were washed with PBS and maintained in DMEM/F12 supplemented with 10% FBS, 1% penicillin-streptomycin and 20 ng/ml of M-CSF (Prospec) for 2 days. Macrophages were treated for 24 hours with 50 ng/ml LPS (Sigma Millipore), 100 ng/ml IFNγ (BioLegend), 300 ng/ml PAM3CSK4 (InvivoGen), 107 cells/ml heat killed Listeria Monocytogenes (HKLM) (InvivoGen), 100 ng/ml Flagellin Salmonella typhimurium standard (InvivoGen), 10 ng/ml FSL1 (InvivoGen), 2.5 ug/ml ssRNA40 (InvivoGen), 2.5 ug/ml CL 075 (Tocris), 5 μM ODN1826, 50 μM Fludarabine (SelleckChem), 50 nM Momelotinib (SelleckChem), 5 μM BVT948 (Sigma Millipore), 200 μM PTP1b inhibitor III (Santa Cruz Biotechnology Inc.), 5 μM NSC87877 (Santa Cruz Biotechnology Inc.), 50 μM PTP1b inhibitor (Cayman), 1 mM PTP Inhibitor IV (Santa Cruz Biotechnology Inc.), 1 μM TSC401, 300 nM UNC2371 (SelleckChem), 300 nM BMS777607 (SelleckChem), 300 nM LDC1267 (SelleckChem) 1.5 μg/ml recombinant Pros1 (R&D systems), 200 ng/ml recombinant Gas6 (R&D systems) or 10-500 μM Cisplatin (Tocris). All components were added as described in the text. Cell culture. B16F10 (CRL-6475, ATCC), Lewis lung carcinoma (LLC) (CRL-1642, ATCC), KPC2713 (Yuliya Pylayeva-Gupta laboratory, UNC) and MDA-MB-231 (HTB-26, ATCC) were cultured in DMEM high glucose supplemented with 10% FBS, 1% penicillin-streptomycin (Gibco). GEMM6 (Dr. Alisha Holtzhausen, UNC), KPPC4662 (Dr. Yuliya Pylayeva-Gupta laboratory, UNC), KPPC4548 (Yuliya Pylayeva-Gupta laboratory, UNC) and E0771 (CRL-3461, ATCC) were maintained in RPMI 1640 supplemented with 10% PBS, 1% penicillin/streptomycin (Gibco) while PyMT cells were cultured in Ham's F-12K with 10% FBS, 1% penicillin-streptomycin (Gibco). Transwell assays were performed in 0.4 μm polyester membrane insert culture plates (Corning). 500,000 cells of each line were plated per well in DMEM/F12 supplemented with 10% FBS, 1% penicillin-streptomycin and 20 ng/ml of M-CSF for culture with mouse macrophages. SC cells (CRL-9855, ATCC) were cultured in IMDM with 10% FBS and 1% penicillin-streptomycin (Gibco). In transwell experiments with the SC cell line, cancer cells were also resuspended in IMDM media.
qRT-PCR. RNA was isolated using the RNeasy Plus Mini Kit (Quiagen) and cDNA was prepared using the Reverse Transcription System (Promega) with one-hour reverse transcription process. qRT-PCR was done using the PowerUp™ SYBR™ Green Master Mix (Applied Biosystems) on a QuantStudio Pro Real-time PCR system (Applied Biosystems) with a 95° C. pretreatment of 10 min, 50 cycles of 95° C., 10 sec and 60° C., 1 min and melt curve at the end. Analysis was performed with the 2^−ΔΔCT method(136).

B16F10 tumors = assay: Subcutaneous B16F10 melanoma tumor model; type: in vivo, mouse; conditions: BVT948 10 mg/kg or Cisplatin 5 mg/kg intraperitoneal, treatment from 50 mm^3
Description: (§2) Tumor implantation, treatment and harvest. For animal studies, 1*10^5 B16F10 luciferase-tagged melanoma cells, 1*10^6 GEMM6 melanoma cells or 2*10^6 LCC cells were implanted subcutaneously into C57BL/6J mice (randomized, both males and females, 000664 The Jackson laboratory). When indicated, mice received intraperitoneal injections 7 days after implantation with 100 μl of 5 mg/kg cisplatin (Tocris), 100 μl of 10 mg/kg BVT948 (Tocris) or 100 μl of 30 mg/kg of vemurafenib. 5 mice were used per experimental group and tumors were harvested when they reached 1.5 cm in any direction.
(§3) Immunohistochemistry analysis. Immunohistochemistry assay was carried out in formalin-fixed, paraffin-embedded 4 μm sections using primary antibodies against F4:80 (AbD Serotec), CD11b (Abcam), CD4 (eBioscience) or CD8a (eBioscience) on a Discovery Ultra Automated IHC staining system (Ventana). Sections were then imaged using a ScanScope XT microscope (Aperio) and quantified using Aperio software.

LLC tumors = assay: Subcutaneous LLC tumor model; type: in vivo, mouse; conditions: BVT948 10 mg/kg or Cisplatin 5 mg/kg intraperitoneal, treatment from 50 mm^3
Description: as §2, §3

[2] = system: Stat1 and MyD88 expression in pro-inflammatory macrophages; assay: Stat1 or Jak1/2 inhibitor treatment of pro-inflammatory macrophages, qRT-PCR; type: cell-based, mouse; conditions: Fludarabine 50 μM, Momelotinib 50 nM
Description: (§4) Peritoneal macrophage isolation and culture. Peritoneal macrophages were done as described previously(65) from 8-week-old C57BL/6J mice (randomized, both male and female). PBS (Gibco) was injected in the mural peritoneal cavity to release the macrophages. After recovering, cells were centrifuged at 1200 rpm for 5 minutes, resuspended in DMEM high glucose, 10% FBS, 1% penicillin-streptomycin (Gibco) and plated. 2 hours after the last step, cells were washed with PBS and maintained in DMEM/F12 supplemented with 10% FBS, 1% penicillin-streptomycin and 20 ng/ml of M-CSF (Prospec) for 2 days. […]

[3] = system: Stat1 phosphorylation and MyD88 in macrophages; assay: Transwell co-culture of M1 induced macrophages with tumor cells plus inhibitors (Western blot, qRT-PCR); type: cell-based, mouse; conditions: 24 hours
Description: as §1, with “GEMM6 (Dr. Alisha Holtzhausen, UNC), KPPC4662 (Dr. Yuliya Pylayeva-Gupta laboratory, UNC), KPPC4548 (Yuliya Pylayeva-Gupta laboratory, UNC) and E0771 (CRL-3461, ATCC) were maintained in RPMI 1640 supplemented with 10% PBS, 1% penicillin/streptomycin (Gibco) while PyMT cells were cultured in Ham's F-12K with 10% FBS, 1% penicillin-streptomycin (Gibco). Transwell assays were performed in 0.4 μm polyester membrane insert culture plates (Corning). 500,000 cells of each line were plated per well in DMEM/F12 supplemented with 10% FBS, 1% penicillin-streptomycin and 20 ng/ml of M-CSF for culture with mouse macrophages. SC cells (CRL-9855, ATCC) were cultured in IMDM with 10% FBS and 1% penicillin-streptomycin (Gibco). In transwell experiments with the SC cell line, cancer cells were also resuspended in IMDM media.” left out

[4] = system: MyD88 expression in peritoneal macrophages; assay: Individual TLR agonism of macrophages, MyD88 by qRT-PCR; type: cell-based, mouse; conditions: 24 hours
Description: as §4

[5] = system: macrophage MyD88 expression; assay: Exogenous TAM ligand addition to pro-inflammatory macrophages, MyD88 qRT-PCR; type: cell-based, mouse; conditions: Pros1 1.5 ug/ml, Gas6 200 ng/ml, compared with transwell co-cultured B16F10 cells
Description: as §1, with “GEMM6 (Dr. Alisha Holtzhausen, UNC), KPPC4662 (Dr. Yuliya Pylayeva-Gupta laboratory, UNC), KPPC4548 (Yuliya Pylayeva-Gupta laboratory, UNC) and E0771 (CRL-3461, ATCC) were maintained in RPMI 1640 supplemented with 10% PBS, 1% penicillin/streptomycin (Gibco) while PyMT cells were cultured in Ham's F-12K with 10% FBS, 1% penicillin-streptomycin (Gibco). Transwell assays were performed in 0.4 μm polyester membrane insert culture plates (Corning). 500,000 cells of each line were plated per well in DMEM/F12 supplemented with 10% FBS, 1% penicillin-streptomycin and 20 ng/ml of M-CSF for culture with mouse macrophages. SC cells (CRL-9855, ATCC) were cultured in IMDM with 10% FBS and 1% penicillin-streptomycin (Gibco). In transwell experiments with the SC cell line, cancer cells were also resuspended in IMDM media.” left out

N.N.[Cl][Pt][Cl] [Cisplatin]
activation of Mer deficient macrophages ([1]; 25 μM Cisplatin, co-cultured with B16F10 tumor cells, no PTP1b inhibitor): macrophages could be activated even in the presence of tumor cells
M1 associated gene expression, Cisplatin alone ([1]; even at 500 μM Cisplatin, wildtype macrophages with B16F10 cells): did not lead to substantially increased M1 associated gene expression
M1 gene expression in MyD88 knockout macrophages ([1]; increasing Cisplatin, with or without BVT948): Neither increasing concentrations of Cisplatin, nor PTP1 b inhibition, were able to restore M1 gene expression
B16F10 tumor growth, monotherapy vs vehicle (B16F10 tumors): did not significantly reduce
LLC tumor growth reduction, monotherapy (LLC tumors): 30%

N#CCNC(=O)c1ccc(-c2ccnc(Nc3ccc(N4CCOCC4)cc3)n2)cc1 [Momelotinib]
Stat1 expression [2]: did not significantly alter
MyD88 expression ([2]; compared with B16F10 transwell co-culture): did not significantly alter

O=S(=O)(O)c1ccc2cc(N=Nc3cc(S(=O)(=O)O)c4cccnc4c3O)ccc2c1 [NSC87877]
Stat1 phosphorylation at Tyrosine 701 and Serine 727 [3]: increased

CCc1oc2cc(S(=O)(=O)Nc3ccc(S(=O)(=O)Nc4nccs4)cc3)ccc2c1C(=O)c1cc(Br)c(O)c(Br)c1 [PTP inhibitor]
Stat1 phosphorylation at Tyrosine 701 and Serine 727 [3]: increased

FSL-1
MyD88 expression upon individual TLR agonism [4]: upregulation of MyD88

Pam3CSK4
MyD88 expression upon individual TLR agonism [4]: upregulation of MyD88

Pros1: recombinant murine Pros1, TAM family ligand (R&D systems)
macrophage MyD88 expression after exogenous ligand addition [5]: reduced comparably to that of tumor cell secretions
macrophage MyD88 expression after exogenous ligand addition ([5]; listed as Recombinant murine Pros1): suppresses macrophage MyD88 expression similarly to transwell co-culture with B16F10 cells

B1: Gas6: recombinant Gas6, TAM family ligand (R&D systems) (protein, UniProt Q14393 31-678, looked up)
Growth arrest-specific …: ALLPAREATQFLRPRQRRAFQVFEEAKQGHLERECVEELCSREEAREVFENDPETDYFYPRYLDCINKYGSPYTKNSGFATCVQNLPDQCTPNPCDRKGTQACQDLMGNFFCLCKAGWGGRLCDKDVNECSQENGGCLQICHNKPGSFHCSCHSGFELSSDGRTCQDIDECADSEACGEARCKNLPGSYSCLCDEGFAYSSQEKACRDVDECLQGRCEQVCVNSPGSYTCHCDGRGGLKLSQDMDTCEDILPCVPFSVAKSVKSLYLGRMFSGTPVIRLRFKRLQPTRLVAEFDFRTFDPEGILLFAGGHQDSTWIVLALRAGRLELQLRYNGVGRVTSSGPVINHGMWQTISVEELARNLVIKVNRDAVMKIAVAGDLFQPERGLYHLNLTVGGIPFHEKDLVQPINPRLDGCMRSWNWLNGEDTTIQETVKVNTRMQCFSVTERGSFYPGSGFAFYSLDYMRTPLDVGTESTWEVEVVAHIRPAADTGVLFALWAPDLRAVPLSVALVDYHSTKKLKKQLVVLAVEHTALALMEIKVCDGQEHVVTVSLRDGEATLEVDGTRGQSEVSAAQLQERLAVLERHLRSPVLTFAGGLPDVPVTSAPVTAFYRGCMTLEVNRRLLDLDEAAYKHSDITAHSCPPVEPAAA
macrophage MyD88 expression after exogenous ligand addition [5]: limited effect

Source: patent US20250041272A1, “COMPOSITIONS AND METHODS FOR TREATING CANCER VIA PTP1B INHIBITION” (priority 2021, published 2025)
